Key:
Type in all cases: cell-based
[1] = tested on: SW620 metastatic cell line; assay: Formation of E-cadherin type intercellular junctions (immunofluorescent labelling of E-cadherin)
Description: (§1) 1. Protocol for Immunofluorescent Labelling of e-Cadherin 1—The cells are plated in 6-well plates, each well containing 3 glass coverslips 10 mm in diameter. 2—Place the cells in 0% Serum for 18 to 24 hours then treat them or not with Y27 10 μM+PDGF 5 ng/ml for 36 to 48 h. 3—Fix the cells for 10 minutes with formalin (3.7% formaldehyde in PBS). 4—Saturation, 10 minutes PBS-BSA 5—Incubation of the primary antibody, diluted to 1:500 in PBS-BSA, 2 hours at 37° C. (Mouse anti E-cadherin, ZYMED, ref: 13-1700) 6—2 rapid washes in PBS-0.1% Tween 7—Incubation of the secondary antibody (Alexa Fluor® 488 F(ab′)2 fragment of goat anti mouse IgG, Molecular Probes ref: A-11017), diluted to 1:2000 in PBS-BSA, 30 minutes at 37° C. 8—2 rapid washes in PBS-0.1% Tween 9—Mounting in Mowiol medium between the slide and the coverslip.

[2] = tested on: CoLo205 metastatic cell line; assay: Localisation of E-cadherin at intercellular junctions (immunofluorescent labelling); conditions: CoLo205, Y-27632 10 μM for 48 hours, FIG. 1
Description: as §1

[3] = tested on: SKCo-1 metastatic cell line; assay: as above; conditions: SKCo-1, Y-27632 10 μM for 48 hours, FIG. 1
Description: as §1

[4] = tested on: SW620 metastatic cell line; assay: Spreading ability of the cells (flat versus round phenotype)
Description: FIG. 2 illustrates the effect of the treatment of metastatic cells of the SW620 cell line by the inhibitor Y-27632 on the spreading ability of the cells (FIG. 2A) and on the formation of E-cadherin type adhesion junctions (FIG. 2B). In FIGS. 2 A and 2 B: on the left: control cells without inhibitor; on the right: cells incubated with Y-27632. On the x-axis: the percentage of flat cells (FIG. 2A) or the percentage of cells forming E-cadherin type intercellular junctions (FIG. 2B). 2—Place the cells in 0% Serum for 18 to 24 hours then treat them or not with Y27 10 μM+PDGF 5 ng/ml for 36 to 48 h.

[5] = tested on: SW620 metastatic cell line; assay: Invasion test (Matrigel, FluoroBlock inserts)
Description: 2. Invasion Test 1—On D-2, thaw the Matrigel at 4° C. all night 2—On D-1 measure the Matrigel into insert chambers: Put all the necessary material on ice (Matrigel, culture medium, tips, eppendorfs, etc. . . . ). Put the FluoroBlock inserts (FALCON, ref: 351152) in the 24-well plates (FALCON, ref: 353504). Dilute the Matrigel to 2 mg/ml in cold serumless medium (if the cells are to be subjected to a treatment X, include the product in the Matrigel, e.g.: Y 27632) Aliquot 100 μl of 2 mg/ml Matrigel per insert avoiding creating bubbles. Leave O/N at 37° C. in a humid atmosphere (in an incubator) 3—On D day, plate the cells on the Matrigel: First put 700 μl of 10% serum medium in a 24-well plate and transfer the inserts to this plate. Trypsinate the cells (previously treated or not . . . ) and take them up in 2% serum medium. Plate 50 000 cells per insert in 200 μl of 2% serum medium on the Matrigel (optionally put Y27632 into the plated cells). 4—The migration time varies depending on the cell type but generally allowing them to migrate for 8 hours fixing a point every 2 hours seems suitable. To fix them, transfer the inserts to a 24-well plate containing 1 ml of formalin (3.7% formaldehyde in PBS), suck up the culture medium inside the chambers and also add formalin (very important, prevents the cells from continuing to migrate in the Matrigel). […] Read the OD at 490 nm.

SMILES: C[C@@H](N)[C@H]1CC[C@H](C(=O)Nc2ccncc2)CC1 [Y-27632]
- location of E-cadherin at the junctions (in words) ([1]; SW620, Y-27632 10 μM for 48 hours, FIG. 1): causes correct relocation of E-cadherin at the junctions
- percentage of cells capable of forming E-cadherin type junctions ([1]; SW620 cells after treatment with Y-27632, FIG. 2B (control 22%)): 52%
- formation of E-cadherin dependent junctions (in words) ([1]; SW620 cells, FIG. 1B and FIG. 2B): enhances
- location of E-cadherin at the junctions (in words) [2]: causes correct relocation of E-cadherin at the junctions
- location of E-cadherin at the junctions (in words) [3]: causes correct relocation of E-cadherin at the junctions
- percentage of flat cells ([4]; SW620 cells after treatment with Y-27632, FIG. 2A (control 30%)): 90%
- percentage of cells retaining a round phenotype ([4]; SW620 cells after treatment with Y-27632, FIG. 2A (control 70%)): 10%
- spreading ability of the cells (in words) ([4]; SW620 cells, FIG. 2A): enhances the spreading ability
- level of invasion, compared with CoN normal colon cells (in words) ([5]; SW620 cells after treatment with Y-27632, FIG. 3B): very low level of invasion, comparable to that of CoN normal colon cells
- invasive capacity (in words) ([5]; SW620 cells treated with Y-27632, FIG. 3B): drastically reduce their invasive capacity

Reference: patent US8062859B2, “Method for screening anticancer substances, set or kit for implementing said method” (Centre National de la Recherche Scientifique (CNRS), priority 2005, dated 2011)
